# According to a melting point compilation (Tetko et al.; mined from patent text by program, amines drawn as free bases though some values may be those of a salt):
row,melting point [°C],Compound
1,172 to 174,O=C(O)CCC(=NO)c1ccc(-c2ccc(Cl)s2)cc1
2,123 to 125,COc1ccc2c3c(c(=O)oc2c1)CN(CC(C)=O)CC3
3,245 to 248,Cc1nc2c(c(=O)[nH]1)-c1ccc(Cl)cc1C(c1ccccc1)=NC2
4,93.5 to 94.5,CCCCNC(=O)CCC(=O)O
5,130,CCCCCCN1CC[C@H](NC(=O)c2cc(Cl)c(N)c3c2OCC3)[C@H](O)C1 (relative stereo)
6,217,O=CNc1cccc2c1SC1=NCCN12
7,218 to 222,Cn1ccnc1-c1ccc(-c2cnc([C@H](Cc3ccccn3)N(C=O)c3cc4ccccc4[nH]3)n2C)cc1
8,185 to 188,COc1ccc(-c2ccc(NC(=O)CCc3ccc(CN4CCCC4)cc3)cc2)cc1
9,190 to 192,Cc1cn([C@H]2C=C[C@@H](O)C2)c(=O)nc1N (racemic)
10,70 to 72,COc1ccc(C=CCCl)cc1
11,150 to 153,CC(C)(C)OC(=O)[C@@H]1CCCN1C(=O)CNS(=O)(=O)c1cccc2cccnc12
12,208 to 210,Nc1nnc2ccccc2n1
13,238,Cc1ccc(-c2nc(CN3CCN(C(c4ccccc4)c4ccccc4)CC3)c(C)[nH]2)cc1
14,186 to 187,Cc1ncsc1CCOc1ccc(NC(=O)c2cc(F)cc(N3CCOCC3)c2)c2ccccc12
15,109 to 110,CCOC(=O)/C(=C/c1ccc(OC)c(OC2CCCC2)c1)c1ccncc1
16,129,COc1ccc(Cc2nc3c(cnn3C(CCCc3ccccc3)C(C)=O)c(=O)[nH]2)cc1 (configuration not stated)
17,182 to 183,O=C1NC(=O)C(Sc2ccc3cc(O)ccc3c2)S1 (configuration not stated)
18,209 to 211,[O-][N+]1=C(c2ccccc2)C2=NCCN2c2cc(N3CCNCC3)ccc21
19,117 to 118,Cn1nc(CNS(C)(=O)=O)nc1NCCCOc1cccc(CN2CCCCC2)c1
20,241 to 242,CCn1c(=O)c2c(nc(/C=C/c3ccc(OC)c(OC(C)=O)c3)n2C)n(CC)c1=O
21,239 to 241,O=C(NC1CC1)c1c(NC(=O)c2cc(C(F)(F)F)nn2-c2ncccc2Cl)ccc2cc[nH]c12
22,104 to 105,CC(C)(O)CC12C=CC=CC1C(=O)NC2=O (configuration not stated)
23,201,Cn1c2ccccc2c2nc3cccc(CO)c3nc21
24,> 270,O=C(Nc1cc(C(F)(F)F)cc(C(F)(F)F)c1)c1cc(Cl)cnc1O

row,melting point [°C],Compound
1,42 to 43,COc1ccccc1C=CCCCCCC(=O)O
2,181 to 183,Cc1c(-c2ccccc2)oc2c(C(=O)NCCCN3CCC(C(=O)c4ccc(F)cc4)CC3)cccc2c1=O
3,265,COCc1csc2c(C(=O)O)c(=O)c3cc4c(cc3n12)OCO4
4,156 to 158,Cn1c(C(F)(F)F)cc(=O)n(-c2cc(OCc3ccc(C(C)(C)C)cc3)c(Cl)cc2F)c1=O
5,51 to 62,Cc1c(C)c2c(c(C)c1OCc1ccccc1)C(=O)CC(C)(COC(C)(C)C)O2 (configuration not stated)
6,123 to 128,CC(=O)NC[C@H]1CN(c2ccc3c(c2)OCCCC3=O)C(=O)O1
7,194 to 195,Cc1ccc(-c2c3n(c(=O)c4ncccc24)CCCN(Cc2cc(C(F)(F)F)cc(C(F)(F)F)c2)C3=O)cc1
8,68 to 70,CN(C)C=CC(=O)c1cccc(Cl)c1
9,119 to 120,COc1cc(OC)nc(NC(=O)NS(=O)(=O)c2ncccc2C(O)CF)n1 (configuration not stated)
10,118 to 120,CC(C)OCCNS(=O)(=O)NC(=O)OCCCc1ccc(OCc2ccco2)cc1Oc1ncc(C(F)(F)F)cc1Cl
11,275 to 278,CCC(=O)Oc1n[nH]c(=O)c2nc3cc(Cl)ccc3c(O)c12
12,105 to 106,COc1ccc2c(c1)Sc1cc(OC)c(Cl)cc1C(O)C2 (configuration not stated)
13,147 to 150,Cc1cn(-c2cccc(C(F)(F)F)c2)nc(-c2ccnn2-c2ccccc2)c1=O
14,164 to 165,CON=C(C(=O)O)c1nc(NC=O)c(Cl)cc1Cl
15,101,CC(C)NC(=O)NC[C@H](C)NC(=O)OC(C)(C)C
16,192 to 195,O=C(Nc1ccc2c(c1)OCCO2)c1ccc(-c2cccs2)cc1
17,115,COc1ccc(C(=O)Nc2ccc3ccc(OC)nc3n2)cc1
18,95 to 97,"CC#CC(C)(C)NC(=O)C(CC)Oc1cncc(Br)c1 (single isomer, unassigned; (-))"
19,100 to 101,CCCCCCCCCCCCCCCCS(=O)(=O)N[C@H]1CCCNC(=O)C1
20,253 to 255,COc1cc2[nH]c(=O)c3ccccc3c2cc1OC
21,135,CCc1nc2cc(COC)c(Cl)cc2n1-c1ccc(CCNC(=O)NS(=O)(=O)c2ccc(C)cc2)cc1
22,164 to 165,Cc1cc(Cn2c(=S)sc3ccccc32)cc(C)c1O
23,86 to 91,COc1cc(OCc2ccccc2)ccc1/C=C/c1cc(/C=C/c2ccc3cc[nH]c3c2)[nH]n1
24,171 to 174,O=S(CCc1ccccc1)c1nc2cnccc2[nH]1 (configuration not stated)

row,melting point [°C],Compound
1,154,Clc1cnc2c(C(Cl)Cl)c(Cl)ccc2c1
2,179 to 182,CC(=O)Nc1ccc(OCc2nc3ccccc3s2)cc1C
3,123 to 124,CCOC(=O)c1c(C(=O)OCC)c(-c2ccc(OC(C)C)c(OC(C)C)c2)c2cc3c(cc2c1O)OCO3
4,215 to 217,CS(=O)(=O)N1C(=O)C2(COc3cc4c(cc32)OCO4)c2ccccc21 (configuration not stated)
5,208 to 209,CC(C)(C)c1ccc(-c2c(Cl)c(CCl)nc3sc4c(c23)CCN(Cc2ccccc2)C4)cc1
6,80 to 81,CCCC=CCOc1ccc(C(C)(C)CC(C)(C)C)cc1-n1nc2ccccc2n1
7,222 to 234,COC(=O)C1=C(C)NC(=O)NC1c1cccc(N)c1 (configuration not stated)
8,94,Cc1nc2c(s1)Cc1cc(Cl)ccc1-2
9,128,C=CCC1(CC=C)CCC(=Cc2ccc(Cl)cc2)C1(O)Cn1cncn1 (configuration not stated)
10,99 to 100,CCc1cc(NCc2ccc(-c3ccccc3C#N)cc2)n2ccnc2n1
11,158 to 160,CC[N+]1([O-])CCC(O)(c2cc(F)cc(Cl)c2)C1 (configuration not stated)
12,92 to 93,CC(C)N(Cc1ccc(C(F)(F)F)cc1)C(=O)C(Cl)Cl
13,230 to 231,CCON1CCC2(CC1)NC(=O)C(c1c(C)cc(C)cc1C)=C2OC(=O)C(C)(C)C
14,202 to 204,CC1(C)CC(=O)c2c(OC3CCC3)sc(-c3cc[nH]n3)c2C1
15,64 to 65,C=C(C)CC(O)C(Br)(Br)Br (configuration not stated)
16,295 to 298,O=C1NC(=O)C(=Cc2cc(O)c(O)c([N+](=O)[O-])c2)S1
17,157 to 159,O=C(CCl)c1ccc(-c2ccc(S(=O)(=O)C(F)F)cc2)cc1
18,242,CC=CC(=O)Nc1n[nH]c2ccc(C(F)(F)F)cc12
19,49 to 50,C#CCC1(C2CCC3C(O[Si](C)(C)C(C)(C)C)CCCC32C)CC1 (configuration not stated)
20,108 to 110,CC1(C)CN(S(=O)(=O)c2ccccc2F)c2cccc(Br)c2O1
21,100 to 111,c1nc(Nc2ccc3[nH]ccc3c2)c2sc(-c3ccc(CNCCN4CCOCC4)cc3)cc2n1
22,78 to 80,CCC(CC)Nc1cc(C)nc2c1ncn2-c1c(C)cc(C)cc1C
23,163 to 165,CC(C)(NC(=O)c1nnc2ccc(OCCCN3CCC(OC(c4ccccc4)c4ccccc4)CC3)nn12)C(=O)O
24,74 to 75,CCOC(=O)CCN(C)CC(C(=O)OC)c1cc(OC)c(CC)c(OC)c1 (configuration not stated)

row,melting point [°C],Compound
1,133 to 134,CCNC(=O)Oc1cc2c(cc1Cl)CCN(C)C[C@H]2c1ccccc1
2,237,CC(=O)N1CC=C(C2=C(C#N)C(c3cccc4nonc34)c3c[nH]nc3N2)CC1 (configuration not stated)
3,178 to 179,Cc1cc2c(cc1C)C(c1ccccc1)(C(F)(F)C(F)(F)F)c1cc(C)c(C)cc1O2
4,221 to 223,Cn1c(COc2ccc(CC3SC(=O)NC3=O)cc2)nc2ccc(Oc3ccc(NC(=O)c4ccc5ccccc5c4)cc3)cc21 (configuration not stated)
5,60 to 62,CC1(C)Cc2ccccc2C1c1cncnc1SCc1cccc(F)c1 (configuration not stated)
6,237 to 240,O=C(O)c1cccc(C(=O)C=Cc2cccc(C=Cc3ccc4ccccc4n3)c2)c1O
7,98 to 100,COc1ccc(CN2C(=O)CN(Cc3cccc(I)c3)S2(=O)=O)cc1
8,137 to 138,NCCCCN1C(=O)NC(c2ccccc2)(c2ccccc2)C1=O
9,220 to 221,Cc1c(S(C)(=O)=O)cc(C(C)(C)C)c(O)c1C(=O)Nc1ccc(S(=O)(=O)C(F)(F)F)cc1Cl
10,58 to 70,CSCC(=O)[C@H](COCc1ccccc1)NC(=O)[C@H](CC(C)C)NC(=O)OCc1ccccc1
11,63 to 68,CCOC(=O)c1ccc(OCCCCCCc2cccc(O)c2O)cc1O
12,122 to 125,CS(=O)(=O)OCCNC(=O)C(O)C(Oc1ccccc1[N+](=O)[O-])c1ccccc1 (configuration not stated)
13,145 to 170,COc1cc(Nc2nc3cccc(-c4cccc(N)c4)c3o2)cc(OC)c1OC
14,93,CCCCCCCCC1(C)Cc2ccc(-c3nc4cc(CCCC)ccc4o3)cc2C1=O (configuration not stated)
15,156,COc1ccc(Oc2ccc(C(=O)NC(C(=O)O)C(C)C)cc2)cc1 (configuration not stated)
16,118,CC1(C)COc2ccc(Cl)cc2C(O)(c2ccccn2)C1 (configuration not stated)
17,150,CC(=O)OC1CSC(Oc2cnccc2C)C(OC(C)=O)C1OC(C)=O (configuration not stated)
18,164 to 165,CCC1CCC(=O)C=C1c1ccc(OCC(=O)O)c(Cl)c1Cl (configuration not stated)
19,267 to 268,CNc1cc(Oc2ccc3c(C(=O)O)cccc3c2)ncn1
20,170 to 173,COc1ccc(C(=O)Nc2ccc(CN3C(=O)[C@H]4CCC[C@H]4N(C(=O)CN4C(=O)c5ccccc5C4=O)c4ccccc43)cc2)cc1 (relative stereo)
21,156 to 158,FC(F)(F)c1ccc(Cl)c(-c2cccn3nc(Cl)nc23)c1

row,Compound,melting point [°C]
1,CC(C)(C)OC(=O)c1ncn2c1[C@@H]1CCCN1C(=O)c1c-2cccc1[N+](=O)[O-],231 to 233
2,C[C@H]1[C@H](O)C2(CC2)C(=O)N1c1ccc(C#N)c(C(F)(F)F)c1,109 to 110
3,CCCc1c(C(=O)C(C)C)c2ccc(CC(=O)OC)cc2n1Cc1cc2c(cc1Cl)OCO2,119 to 120
4,O=[N+]([O-])C1=C2N(Cc3ccc(Cl)nc3)CCCN2C2CCC1O2 (configuration not stated),143 to 145
